Reference: paper PMC11497331 (Glia, 2021)

Test system: primary microglia from wild-type (WT) mice
Assay type: cell-based

In the case of C=C1[C@@H](C)[C@H]2[C@H](Cc3ccccc3)NC(=O)[C@]23[C@H](OC(C)=O)/C=C/[C@@](C)(O)C(=O)[C@@H](C)C/C=C/[C@H]3[C@@H]1O [cytochalasin D, Cytochalasin D], the “effect of cytochalasin D on Aβ uptake” value is reported as “reduced”.
